Source: publication PMC10850913 (Heliyon, 2024)
Read-outs that look alike come from different tables or passages of the source.

What was measured:
HT-29 cell line = tested on: HT-29 cell line; design: method as in PMID 31149165; details: 1000 μg/mL, MTT assay; cited from earlier work
HCT116 cells [1] = test: Mitochondrial membrane potential estimation (JC-1 flow cytometry); format: cell-based; details: HCT-116, IC50 dose, 24 h
Protocol: After the incubation period, the medium was aspirated, and cells were harvested using trypsin EDTA. The harvested cells were collected in a 1.5 ml tube and subjected to a single wash with 500 μl of chilled PBS. Subsequently, the cell pellets were resuspended in 400 μl of JC1 staining buffer containing 2 μM JC-1 dye. The samples were then promptly acquired using a Flow Cytometer within a 1-h timeframe.

HCT116 cells [2] = test: Cell cycle analysis (PI, flow cytometry); format: cell-based; details: HCT116, IC50 concentration, 24 h
Protocol: Following the incubation period, cells were harvested using trypsin and collected in a 1.5 ml tube. After a single wash with 500 μl of chilled PBS, approximately 1 x 10^6 cells were suspended in 100 μl of PBS. The cell suspension was gently vortexed to achieve a mono-dispersed cell suspension with minimal aggregation. Subsequently, the cells were fixed by transferring this suspension with a pipette into centrifuge tubes containing 900 μl of 70 % ethanol, placed on ice, and then incubated for a minimum of 2 h at 4 °C. The fixed cells could be stored in 70 % ethanol at 4 °C for several weeks.
After fixation, the cells were centrifuged, and the pellet was suspended in 500 μl of Propidium Iodide (PI) staining solution (0.1 % (v/v) Triton X-100, 10 μg/ml PI, and 100 μg/ml DNase-free RNaseA in PBS). This suspension was kept in the dark at room temperature for 30 min or at 37 °C for 10 min. The samples were then acquired on a flow cytometer.

erythrocytes = test: Haemolysis study; format: cell-based, male albino rats; details: rat erythrocytes, 100 μg/ml
Protocol: For […] control identification, Triton X-100 treatment was employed. A 4 mL blood sample was drawn from male albino rats (220g) using a 23-gauge needle from the lateral saphenous vein of the animal (SPTM/2022/IAEC/18). The blood sample was then centrifuged at 1344×g for 10 min, and the plasma layer was carefully removed. The erythrocytes were washed three times with saline water and incubated with a 100 μg/mL concentration of the samples at 37 °C. Samples of 200 μL each were collected at 0, 1–10 h and centrifuged at 1344×g for 10 min.
During the incubation, hemoglobin transformed into oxyhemoglobin. The obtained erythrocytes were observed under a microscope, and absorbance readings were taken at 570 nm for different concentrations of samples. All test samples were analyzed in triplicate, and the results are expressed as mean ± SD (n = 3). The percentage of hemolysis can be calculated using the following equation.

[3] = cited from earlier work
HCT116 cells [4] = test: Cellular apoptosis (Annexin V FITC/PI flow cytometry); format: cell-based; details: HCT116, IC50 dose
Protocol: HCT116 cell lines were seeded, cultured and subjected up to IC-50 dose of compound. Subsequent to treatment, cells underwent two washes with cold PBS. Resuspended cells were placed in 1X binding buffer at a concentration of 1x10^6 cells/ml, and the cells were divided into distinct groups, namely Unstained cells, Control group, Annexin only, PI only, and Treatment. Following the division into labelled tubes, Annexin V FITC and PI were introduced to their respective tubes. After vortexing and an incubation period of 15 min at room temperature, 1X Binding buffer was added to each tube. Subsequently, the samples were analyzed by a Flow Cytometer within 1 h.

[5] = In vitro drug release (dialysis tube) and kinetic models; format: physicochemical; details: PBS pH 5.5, 37 °C
Protocol: We utilized a dialysis tube diffusion system to characterize the in vitro release of drugs from the formulations. This system provides a controlled environment to study the rate and extent of drug release from the formulations, reflecting their potential drug delivery behaviour. […] Tube was inserted into 50 mL of PBS (pH 5.5) with both ends tightened. In order to provide the sink conditions, PBS quantifying to 0.5 mL was added. Formulated medium was heated up to 37 ± 0.5 °C and stirred continuously at speed of 200 rpm. At predefined intervals, a 5 mL sample was taken, and an equal volume of new medium was introduced to keep the final volume, or sink condition, throughout experiment. All test samples were analyzed in triplicate manner and results are expressed as mean ± SD (n = 3).
To elucidate the kinetics and mechanisms governing drug release, we employed regression analysis to fit the experimental drug release data to various mathematical models. This analysis yielded coefficient constants that shed light on the order of release and the underlying mechanisms involved. (See Supportive Information for further details).

HCT116 cells [6] = test: Wound healing (scratch) assay; format: cell-based; details: HCT-116, after 48 h, compared to control
Protocol: The following day, a scratch was made in the cell monolayer using a 200 μl tip, and the cells were subsequently treated with the specified concentration of the formulation. Photographs were taken at various time intervals ranging from 0 to 48 h.
The gap area resulting from the scratch was analyzed using Image J Software (NCBI) and was further presented in a graphical format to illustrate the changes over time.

Tissue distribution = format: in vivo; details: male, albino Wistar, rat, intravenous, 15 mg/kg, rats, 8 h after administration
Protocol: To assess the distribution and concentration of a medication within the body following delivery, tissue distribution studies were conducted. Twelve male albino Wistar rats were divided into two groups, each comprising six rats, following the approved institutional protocol by the Committee for the Purpose of Control and Supervision of Experiments on Animals (CPCSEA) (Ref. No.: SPTM/2022/IAEC/18).
The medications evaluated for tissue distribution were ENZ and the formulation ENZ-PLGA-PSAR-TPGS NPs. After administering the doses for 8 h, the rats were euthanized. Tissue samples, including liver, heart, kidney, lungs, brain, colon, small intestine, stomach, and rectum muscle tissues, were collected. Brain endothelial cells were obtained using a stereotaxic apparatus (USA, Model No. 51500). The collected tissue samples were homogenized in a cold physiological solution and filtered after rinsing with saline water (0.9 percent sodium chloride).
Subsequently, the samples were analyzed using RP-UHPLC (Dionex Ultimate, 3000) to determine the distribution and concentration of the medications in various tissues.

platelets = test: Platelet aggregation study; format: cell-based, rats; details: blood incubated 2 h, Leishman-stained slides
Protocol: A 1 mL blood sample was collected in heparinized tubes to prevent coagulation. […] The platelet aggregation was then examined both quantitatively and qualitatively. The qualitative analysis was conducted through microscopic examination of stained blood smears. Blood smears were prepared on clean glass slides after the 2-h incubation period. The slides were air-dried and subsequently stained with Leishman's stain for 5 min (Span Diagnostics, India). Following the staining, the slides were rinsed with distilled water, and a cover glass was placed on each slide for visualization under an optical microscope using an immersion objective. Images were captured using a digital camera.
As a control, whole blood incubated with an equivalent volume of PBS was used as the spontaneous control.

[7] = Pharmacokinetics after intravenous administration; format: in vivo, male Albino Wistar rats; details: rats, 15 mg/kg intravenously
Protocol: In accordance with the ethical approval (SPTM/2022/IAEC/18), nine male Albino Wistar rats weighing between 200 and 250 g were divided into three groups (n = 3) for proper conduct of pharmacokinetic experiments.
Blood samples (500 μL) were collected from the rats' tail veins into heparinized tubes and cold centrifuged at 13,500 rpm for 10 min at 4 °C to separate plasma from blood. Subsequently, 100 μL of the separated plasma was mixed with 200 μL of acetonitrile, vortexed for 3 min to extract proteins, and cold centrifuged again at 13,500 rpm for 5 min at 4 °C.
The supernatant was then diluted with methanol, passed through a membrane filter, and subjected to analysis using a High-Performance Liquid Chromatography (HPLC) system. Isocratic elution was performed with a mobile phase consisting of a 20 mM ammonium acetate buffer and acetonitrile in a 60:40 ratio, at a flow rate of 1.0 mL/min, utilizing a C18 column.

[8] = tested on: castration-resistant prostate cancer (CRPC); details: patients with CRPC; cited from earlier work
[9] = male, Albino Wistar, rat, plasma, iv

CNC(=O)c1ccc(N2C(=S)N(c3ccc(C#N)c(C(F)(F)F)c3)C(=O)C2(C)C)cc1F [ENZ, Enzalutamide]
cell viability (HT-29 cell line): significant decrease | High MMP cells (HCT116 cells [1]): 3.5% | live cells in MMP assay (HCT116 cells [1]): 52.7% | low MMP cells (HCT116 cells [1]): 41.7% | cells in G1 phase (HCT116 cells [2]): 49.6% | cells in G2 (G2/M) phase (HCT116 cells [2]): 14.5% | lysis of RBCs (microscopy) (erythrocytes): no occurrence of eruption or lysis of the RBCs | pKa [3]: 4.16 | early apoptosis (lower right quadrant) (HCT116 cells [4]): 2.7% | late apoptosis (upper right quadrant) (HCT116 cells [4]): 10.1% | live cells (lower left quadrant) (HCT116 cells [4]): 72.6% | pattern of release [5]: poor | inhibition of wound area (HCT116 cells [6]): inhibited the wound area | concentration at 8 h (Tissue distribution; brain, read-out: Concentration in Brain): 0.7 ± 0.1 ng/mL | concentration at 8 h (Tissue distribution; colon, read-out: Concentration in Colon): 0.95 ± 0.5 ng/mL | concentration at 8 h (Tissue distribution; heart, read-out: Concentration in Heart): 0.8 ± 1.1 ng/mL | concentration at 8 h (Tissue distribution; kidney, read-out: Concentration in Kidney): 0.57 ± 0.21 ng/mL | concentration at 8 h (Tissue distribution; liver, read-out: Concentration in Liver): 1.2 ± 0.13 ng/mL | concentration at 8 h (Tissue distribution; lungs, read-out: Concentration in Lungs): 0.5 ± 0.102 ng/mL | concentration at 8 h (Tissue distribution; rectum, read-out: Concentration in Rectum): 3.07 ± 0.4 ng/mL | concentration at 8 h (Tissue distribution; spleen, read-out: Concentration in Spleen): 0.3 ± 0.1 ng/mL | concentration at 8 h (Tissue distribution; stomach, read-out: Concentration in Stomach): 0.21 ± 0.12 ng/mL | platelet aggregation (platelets): no aggregation | MRT [7, 9]: 5.34 ± 2.43 h | Vd [7, 9]: 1.4 ± 0.00356 L | clearance [7, 9]: 1.51 mL/min | C [7]: 226.24 ± 31.2 ng/mL | extension of survival [8]: 4.8 months
